One experiment has as its target T1, αvβ1 (UniProt G3HZ55+P06756).
T1 construct: expressed in transfected cells; host or cells: CHO cells deficient in α5 gene, transfected with αv gene
The experiment in a line: αvβ1 cell adhesion inhibition test (αv-transfected CHO cells on human fibronectin). It counts as cell-based. As to conditions: human fibronectin coating, 1 mM MnCl2, 1 hour, read-out: IC50 (rate of inhibition of cell adhesion, αvβ1). The method, boiled down:
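α5-deficient CHO cells expressing αv, at 1×10^6 cells/mL in DMEM with 1 mM MnCl2 plus test compound, allowed to adhere 1 h at 37° C to human fibronectin (coated at 1.25 μg/mL). Adherent cells read by crystal violet absorbance, normalized to uncoated (100%) and DMSO (0%) wells. IC50 reported as banded classes.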

In experiment [1] the test system is Human hepatic stellate cells. As to the kind of experiment: Active human hepatic stellate cell dedifferentiation test (decrease in ACTA2 mRNA expression). The format is cell-based. As to conditions: 3 days differentiation then 2 days with compound, read-out: IC50 (rate of decrease in ACTA2 mRNA expression). The method, boiled down: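 Human hepatic stellate cells differentiated 3 days in DMEM/10% FBS, then exposed to compound for 2 days (0.1% DMSO final) at 37° C. ACTA2 mRNA measured by RT-qPCR, normalized to GAPDH (comparative Ct). Decrease scaled between DMSO (100%) and start-of-differentiation cells (0%); IC50 derived from it.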

T1 sequence (P06756 31-889 limits assumed): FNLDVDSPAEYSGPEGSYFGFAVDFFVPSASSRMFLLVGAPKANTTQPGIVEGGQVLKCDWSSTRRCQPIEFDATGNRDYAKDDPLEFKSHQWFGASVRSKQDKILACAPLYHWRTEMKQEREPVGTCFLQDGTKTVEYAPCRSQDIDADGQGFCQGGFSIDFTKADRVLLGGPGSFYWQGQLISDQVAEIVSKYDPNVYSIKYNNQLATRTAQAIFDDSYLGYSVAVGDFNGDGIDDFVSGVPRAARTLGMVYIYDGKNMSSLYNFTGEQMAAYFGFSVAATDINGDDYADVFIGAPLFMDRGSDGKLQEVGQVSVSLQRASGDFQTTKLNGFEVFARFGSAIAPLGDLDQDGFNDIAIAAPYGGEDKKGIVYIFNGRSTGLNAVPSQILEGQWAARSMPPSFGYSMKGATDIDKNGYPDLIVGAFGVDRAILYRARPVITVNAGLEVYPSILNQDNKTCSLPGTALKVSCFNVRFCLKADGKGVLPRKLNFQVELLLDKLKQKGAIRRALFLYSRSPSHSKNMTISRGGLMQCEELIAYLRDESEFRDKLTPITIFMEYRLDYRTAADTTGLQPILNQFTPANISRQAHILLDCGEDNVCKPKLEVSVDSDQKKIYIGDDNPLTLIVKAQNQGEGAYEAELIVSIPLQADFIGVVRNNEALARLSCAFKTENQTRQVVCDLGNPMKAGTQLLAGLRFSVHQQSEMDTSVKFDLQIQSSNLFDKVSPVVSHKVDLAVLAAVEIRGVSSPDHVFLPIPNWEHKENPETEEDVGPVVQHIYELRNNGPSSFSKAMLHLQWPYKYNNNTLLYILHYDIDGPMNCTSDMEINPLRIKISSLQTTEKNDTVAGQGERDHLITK
T1 sequence (P06756 891-1048 limits assumed): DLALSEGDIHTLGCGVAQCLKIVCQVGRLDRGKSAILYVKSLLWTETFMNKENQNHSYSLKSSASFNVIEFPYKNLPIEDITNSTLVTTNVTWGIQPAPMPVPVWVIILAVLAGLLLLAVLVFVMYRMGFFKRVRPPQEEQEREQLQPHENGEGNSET
T1 sequence (G3HZ55 21-798): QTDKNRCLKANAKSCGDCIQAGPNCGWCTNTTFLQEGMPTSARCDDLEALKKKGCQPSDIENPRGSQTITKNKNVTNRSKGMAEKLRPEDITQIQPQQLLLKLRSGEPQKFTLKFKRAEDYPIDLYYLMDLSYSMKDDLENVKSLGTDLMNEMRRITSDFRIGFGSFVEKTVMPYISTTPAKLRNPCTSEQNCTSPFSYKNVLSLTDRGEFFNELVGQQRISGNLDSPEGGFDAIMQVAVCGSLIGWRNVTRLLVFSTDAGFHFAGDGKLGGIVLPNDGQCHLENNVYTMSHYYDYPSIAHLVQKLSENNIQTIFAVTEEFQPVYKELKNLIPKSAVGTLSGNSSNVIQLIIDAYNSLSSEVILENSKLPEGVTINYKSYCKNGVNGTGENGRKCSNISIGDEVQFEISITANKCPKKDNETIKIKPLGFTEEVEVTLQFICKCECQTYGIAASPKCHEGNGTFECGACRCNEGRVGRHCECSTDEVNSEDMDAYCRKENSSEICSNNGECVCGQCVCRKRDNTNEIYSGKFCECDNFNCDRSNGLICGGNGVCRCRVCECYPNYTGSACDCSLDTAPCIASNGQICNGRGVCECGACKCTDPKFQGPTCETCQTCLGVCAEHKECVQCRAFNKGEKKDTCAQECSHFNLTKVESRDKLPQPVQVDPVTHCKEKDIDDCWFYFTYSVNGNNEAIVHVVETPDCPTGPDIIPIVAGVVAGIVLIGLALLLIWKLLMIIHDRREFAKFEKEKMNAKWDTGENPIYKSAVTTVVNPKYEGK

For `O=C(O)C[C@H](NC(=O)CNC(=O)c1cc(NC2=NCC(F)CN2)c2cn[nH]c2c1)c1ccc(F)c(C(F)(F)F)c1` (stereo partly drawn) [Example 13-(b), (3S)-3-(2-(4-((5-fluoro-1,4,5,6-tetrahydropyrimidin-2-yl)amino)-1H-indazole-6-carboxamido)acetamido)-3-(4-fluoro-3-(trifluoromethyl)phenyl)propanoic acid], the IC50 (in general, the concentration needed to halve the response being measured) on αvβ1 was under 3 nM; in experiment [1], 10 to 50 nM.

For `O=C(O)C[C@H](NC(=O)CNC(=O)c1cc(NC2=NCC(F)CN2)c2cn[nH]c2c1)c1cccc(OC2CC2)c1` (stereo partly drawn) [Example 40-(b), (3S)-3-(3-cyclopropoxyphenyl)-3-(2-(4-((5-fluoro-1,4,5,6-tetrahydropyrimidin-2-yl)amino)-1H-indazole-6-carboxamido)acetamido)propanoic acid], the IC50 at αvβ1 is under 3 nM; in experiment [1], 10 to 50 nM.

For the compound `O=C(O)C[C@H](NC(=O)CNC(=O)c1cc(NC2=NCC(F)CN2)c2cn[nH]c2c1)c1cc(F)cc(C(F)(F)F)c1` (stereo partly drawn) [Example 6-(b), (3S)-3-(2-(4-((5-fluoro-1,4,5,6-tetrahydropyrimidin-2-yl)amino)-1H-indazole-6-carboxamido)acetamido)-3-(3-fluoro-5-(trifluoromethyl)phenyl)propanoic acid], the IC50 was under 3 nM on αvβ1 and 10 to 50 nM in experiment [1].

Take `O=C(O)C[C@H](NC(=O)CNC(=O)c1cc(NC2=NCC(F)CN2)c2cn[nH]c2c1)c1cc(Cl)cc(OC(F)(F)F)c1` (stereo partly drawn) [Example 31-(b), (3S)-3-(3-chloro-5-(trifluoromethoxy)phenyl)-3-(2-(4-((5-fluoro-1,4,5,6-tetrahydropyrimidin-2-yl)amino)-1H-indazole-6-carboxamido)acetamido)propanoic acid]: the figures for the IC50 (on αvβ1; in experiment [1]) were 3 to 10 nM and under 10 nM, respectively.

Turning to `O=C(O)C[C@H](NC(=O)CNC(=O)c1cc(NC2=NCC(F)CN2)c2cn[nH]c2c1)c1cc(C(F)(F)F)cc(C(F)(F)F)c1` (stereo partly drawn) [Example 7-(b), (3S)-3-(3,5-bis(trifluoromethyl)phenyl)-3-(2-(4-((5-fluoro-1,4,5,6-tetrahydropyrimidin-2-yl)amino)-1H-indazole-6-carboxamido)acetamido)propanoic acid], the IC50 is under 3 nM on αvβ1 and under 10 nM in experiment [1].

For `O=C(O)C[C@H](NC(=O)CNC(=O)c1cc(NC2=NCC(F)CN2)c2cn[nH]c2c1)c1cc(Cl)c(F)c(C(F)(F)F)c1` (stereo partly drawn) [Example 15-(b), (3S)-3-(3-chloro-4-fluoro-5-(trifluoromethyl)phenyl)-3-(2-(4-((5-fluoro-1,4,5,6-tetrahydropyrimidin-2-yl)amino)-1H-indazole-6-carboxamido)acetamido)propanoic acid], the results for the IC50 (on αvβ1; in experiment [1]) were under 3 nM and under 10 nM, respectively.

Take `COc1cc([C@H](CC(=O)O)NC(=O)CNC(=O)c2cc(NC3=NCC(F)CN3)c3cn[nH]c3c2)cc(C(F)(F)F)c1` (stereo partly drawn) [Example 5-(b), (3S)-3-(2-(4-((5-fluoro-1,4,5,6-tetrahydropyrimidin-2-yl)amino)-1H-indazole-6-carboxamido)acetamido)-3-(3-methoxy-5-(trifluoromethyl)phenyl)propanoic acid]: the figures for the IC50 (at αvβ1; in experiment [1]) were under 3 nM and under 10 nM, respectively.

`O=C(O)C[C@H](NC(=O)CNC(=O)c1cc(NC2=NCC(F)CN2)c2cn[nH]c2c1)c1cccc(C(F)(F)F)c1Cl` (stereo partly drawn) [Example 10-(b), (3S)-3-(2-chloro-3-(trifluoromethyl)phenyl)-3-(2-(4-((5-fluoro-1,4,5,6-tetrahydropyrimidin-2-yl)amino)-1H-indazole-6-carboxamido)acetamido)propanoic acid]: the IC50 (on αvβ1; in experiment [1]) was at least 100 nM in each case.

With `O=C(O)C[C@H](NC(=O)CNC(=O)c1cc(NC2=NCC(F)CN2)c2cn[nH]c2c1)c1cc(OC(F)F)cc(OC(F)F)c1` (stereo partly drawn) [Example 30-(b), (3S)-3-(3,5-bis(difluoromethoxy)phenyl)-3-(2-(4-((5-fluoro-1,4,5,6-tetrahydropyrimidin-2-yl)amino)-1H-indazole-6-carboxamido)acetamido)propanoic acid], the IC50 at αvβ1 was under 3 nM; in experiment [1], under 10 nM.

For `O=C(O)C[C@H](NC(=O)CNC(=O)c1cc(NC2=NCC(F)CN2)c2cn[nH]c2c1)c1cc(OC(F)(F)F)ccc1F` (stereo partly drawn) [Example 33-(b), (3S)-3-(2-(4-((5-fluoro-1,4,5,6-tetrahydropyrimidin-2-yl)amino)-1H-indazole-6-carboxamido)acetamido)-3-(2-fluoro-5-(trifluoromethoxy)phenyl)propanoic acid], the IC50 on αvβ1 is under 3 nM; in experiment [1] it was 10 to 50 nM.

On to `O=C(O)C[C@H](NC(=O)CNC(=O)c1cc(NC2=NCC(F)CN2)cc2[nH]ncc12)c1cccc(C(F)(F)F)c1` (stereo partly drawn) [Example 56-(b), (3S)-3-(2-(6-((5-fluoro-1,4,5,6-tetrahydropyrimidin-2-yl)amino)-1H-indazole-4-carboxamido)acetamido)-3-(3-(trifluoromethyl)phenyl)propanoic acid], for which the IC50 at αvβ1 was 3 to 10 nM; in experiment [1] it was under 10 nM.

Regarding `O=C(O)C[C@H](NC(=O)CNC(=O)c1cc(NC2=NCC(F)CN2)c2cn[nH]c2c1)c1cc(OC(F)F)ccc1F` (stereo partly drawn) [Example 28-(b), (3S)-3-(5-(difluoromethoxy)-2-fluorophenyl)-3-(2-(4-((5-fluoro-1,4,5,6-tetrahydropyrimidin-2-yl)amino)-1H-indazole-6-carboxamido)acetamido)propanoic acid], the IC50 was under 3 nM on αvβ1 and 10 to 50 nM in experiment [1].

With `O=C(O)C[C@H](NC(=O)CNC(=O)c1cc(NC2=NCC(F)CN2)c2cn[nH]c2c1)c1cccc(C(F)(F)F)c1` (stereo partly drawn) [Example 35-(b), (3S)-3-(2-(4-((5-fluoro-1,4,5,6-tetrahydropyrimidin-2-yl)amino)-1H-indazole-6-carboxamido)acetamido)-3-(3-(trifluoromethyl)phenyl)propanoic acid], the figures for the IC50 (on αvβ1; in experiment [1]) were 3 to 10 nM and under 10 nM, respectively.

For `O=C(O)C[C@H](NC(=O)CNC(=O)c1cc(NC2=NCC(F)CN2)c2cn[nH]c2c1)c1cc(Cl)cc(OC(F)F)c1` (stereo partly drawn) [Example 25-(b), (3S)-3-(3-chloro-5-(difluoromethoxy)phenyl)-3-(2-(4-((5-fluoro-1,4,5,6-tetrahydropyrimidin-2-yl)amino)-1H-indazole-6-carboxamido)acetamido)propanoic acid], the values for the IC50 (at αvβ1; in experiment [1]) were under 3 nM and under 10 nM, respectively.

In the case of `COc1ccc([C@H](CC(=O)O)NC(=O)CNC(=O)c2cc(NC3=NCC(F)CN3)c3cn[nH]c3c2)cc1Br` (stereo partly drawn) [Example 16-(b), (3S)-3-(3-bromo-4-methoxyphenyl)-3-(2-(4-((5-fluoro-1,4,5,6-tetrahydropyrimidin-2-yl)amino)-1H-indazole-6-carboxamido)acetamido)propanoic acid], the figures for the IC50 (on αvβ1; in experiment [1]) were under 3 nM and under 10 nM, respectively.

For `O=C(O)C[C@H](NC(=O)CNC(=O)c1cc(NC2=NCC(F)CN2)c2cn[nH]c2c1)c1cc(I)cc(C(F)(F)F)c1` (stereo partly drawn) [Example 3-(b), (3S)-3-(2-(4-((5-fluoro-1,4,5,6-tetrahydropyrimidin-2-yl)amino)-1H-indazole-6-carboxamido)acetamido)-3-(3-iodo-5-(trifluoromethyl)phenyl)propanoic acid], the IC50 was 3 to 10 nM at αvβ1 and 10 to 50 nM in experiment [1].

Regarding `O=C(O)C[C@H](NC(=O)CNC(=O)c1cc(NC2=NCC(F)CN2)cc2[nH]ncc12)c1cc(Br)cc(C(F)(F)F)c1` (stereo partly drawn) [Example 53-(b), (3S)-3-(3-bromo-5-(trifluoromethyl)phenyl)-3-(2-(6-((5-fluoro-1,4,5,6-tetrahydropyrimidin-2-yl)amino)-1H-indazole-4-carboxamido)acetamido)propanoic acid], the IC50 at αvβ1 is under 3 nM; in experiment [1], 10 to 50 nM.

On to `O=C(O)C[C@H](NC(=O)CNC(=O)c1cc(NC2=NCC(F)CN2)c2cn[nH]c2c1)c1cccc(-n2cccn2)c1` (stereo partly drawn) [Example 43-(b), (3S)-3-(3-(1H-pyrazol-1-yl)phenyl)-3-(2-(4-((5-fluoro-1,4,5,6-tetrahydropyrimidin-2-yl)amino)-1H-indazole-6-carboxamido)acetamido)propanoic acid], for which the IC50 at αvβ1 is 3 to 10 nM; in experiment [1], 10 to 50 nM.

Source of the values: US20230192661A1, “1, 4, 5, 6-TETRAHYDROPYRIMIDINE-2-AMINE DERIVATIVE” (UBE Corporation, priority 2020, published 2023).
